{"source": "paper PMC9530166", "about": "“Allosteric regulation of glycogen breakdown by the second messenger cyclic di-GMP” (Nature Communications, 2022)", "key": {"GlgX": {"biological_target": "GlgX (Streptomyces venezuelae, UniProt F2RAW5)", "sequence (F2RAW5 entry or part of it)": "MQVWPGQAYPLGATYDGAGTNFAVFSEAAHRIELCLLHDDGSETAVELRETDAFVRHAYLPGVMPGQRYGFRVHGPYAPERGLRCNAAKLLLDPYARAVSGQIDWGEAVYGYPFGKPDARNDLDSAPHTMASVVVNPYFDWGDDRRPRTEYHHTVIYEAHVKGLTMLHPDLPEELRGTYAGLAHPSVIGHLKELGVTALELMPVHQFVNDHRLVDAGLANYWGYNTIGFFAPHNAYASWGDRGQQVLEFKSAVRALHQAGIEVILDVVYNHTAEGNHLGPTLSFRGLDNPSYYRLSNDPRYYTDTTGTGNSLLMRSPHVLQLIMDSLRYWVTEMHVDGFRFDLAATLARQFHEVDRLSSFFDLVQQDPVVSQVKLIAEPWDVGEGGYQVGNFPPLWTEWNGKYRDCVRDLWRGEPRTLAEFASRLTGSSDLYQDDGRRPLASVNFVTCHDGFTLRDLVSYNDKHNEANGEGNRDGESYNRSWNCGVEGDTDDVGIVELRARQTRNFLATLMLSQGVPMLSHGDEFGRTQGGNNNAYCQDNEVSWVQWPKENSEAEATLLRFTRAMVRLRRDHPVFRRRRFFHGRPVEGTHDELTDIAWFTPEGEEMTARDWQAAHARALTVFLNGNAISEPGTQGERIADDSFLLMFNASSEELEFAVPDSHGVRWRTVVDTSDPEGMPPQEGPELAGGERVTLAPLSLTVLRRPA", "assay": "Fluorescence polarization (FP) binding, wild-type GlgX", "settings": "FP, 1 nM fluoresceinated ligand, 25 °C", "excerpt": "(§1) Fig. 5 Structure of the S. venezuelae GlgX-c-di-GMP complex. a Ribbon diagram of the S. venezuelae GlgX-c-di-GMP complex with one GlgX subunit colored cyan and the other salmon. Shown as sticks are the c-di-GMP molecules bound at each end of the antiparallel dimer. […] There was clear density for each c-di-GMP molecule. b Close up of the GlgX-c-di-GMP binding interaction. Key residues mediating contacts to the c-di-GMP are shown as sticks and labeled. Hydrogen bonds from GlgX residues that specify binding to the guanine are indicated by yellow dashed lines. c Fluorescence polarization (FP) binding isotherm showing interaction of GlgX, GlgXE47A-R49A and GlgXR438A-R579A for F-c-di-GMP in red, green and blue respectively. Also shown is the binding isotherm for GlgX binding to F-c-di-AMP in black. […] The y-axis and x-axis are millipolarization (mP) units and GlgX concentration (μM), respectively. Shown are representative binding curves for each. The experiments were performed in technical triplicates and the error between measurements reported. Error bars represent SD of the measurements. Source data are provided in the Source data file.\nThus, we used this F-tagged c-di-GMP in fluorescence polarization (FP) studies to quantify the interaction between GlgX and c-di-GMP. […] To ensure that the presence of the fluorescent tag was not impacting the GlgX interaction with c-di-GMP we used microscale thermophoresis (MST) to quantify c-di-GMP binding to GlgX. […] But to further probe the structural model we created GlgXE47A-R49A and GlgXR438A-R579A mutants and performed FP studies with these proteins.\nTo measure c-di-GMP binding to GlgX and GlgX mutants, 2′-O-(6-[Fluoresceinyl]aminohexylcarbamoyl)-cyclic diguanosine monophosphate (2′-Fluo-AHC-c-di-GMP) (BioLog), was used as a fluoresceinated reporter ligand. This molecule is conjugated via a nine atom spacer to one of the c-di-GMP 2′ hydroxyl groups. […] 2′-O-(6-[Fluoresceinyl]aminohexylcarbamoyl)-cyclic diadenosine monophosphate (2′-Fluo-AHC-c-di-AMP) (BioLog) was also used in binding studies to assess specificity of GlgX for c-di-GMP. […]"}, "GlgXR438A-R579A": {"tested_on": "GlgXR438A-R579A", "sequence (as listed by the source, stated change not applied)": "as the sequence (F2RAW5 entry or part of it) above, with R438A, R579A counted along it", "assay": "Fluorescence polarization binding, GlgXR438A-R579A", "parameters": "species or system Streptomyces venezuelae", "excerpt": "as §1, with “Error bars represent SD of the measurements. Source data are provided in the Source data file.” left out\n(§2) Thus, we used this F-tagged c-di-GMP in fluorescence polarization (FP) studies to quantify the interaction between GlgX and c-di-GMP. […] To ensure that the presence of the fluorescent tag was not impacting the GlgX interaction with c-di-GMP we used microscale thermophoresis (MST) to quantify c-di-GMP binding to GlgX. […]"}, "GlgXE47A-R49A": {"tested_on": "GlgXE47A-R49A", "sequence (as listed by the source, stated change not applied)": "as the sequence (F2RAW5 entry or part of it) above, with E47A, R49A counted along it", "assay": "Fluorescence polarization binding, GlgXE47A-R49A", "parameters": "species or system Streptomyces venezuelae", "excerpt": "as §1, with “Error bars represent SD of the measurements. Source data are provided in the Source data file.” left out\nas §2"}, "His6-GlgX": {"tested_on": "His6-GlgX", "assay": "DRaCALA with [32P]-c-di-GMP, wild-type GlgX", "format": "binding, Streptomyces venezuelae", "settings": "excess (100 µM) unlabeled nucleotide", "description": "(§3) Fig. 1 GlgX binds c-di-GMP. a Quantification of c-di-GMP in S. venezuelae cell extracts using LC-MS/MS. Cells were harvested during late vegetative growth (8–10 h), transition to sporulation (12–16 h), and sporulation (18–20 h). Data are presented as the mean of biological replicates ±SD (n = 3). […] Source data are provided in the Source data file. c [^32P]-c-di-GMP binds to GlgX in DRaCALA assay indicated by dark spots in the center of the nitrocellulose membrane. For competition, excess (100 µM) of unlabeled c-di-GMP, c-di-AMP, or GTP was added to the reaction containing [^32P]-c-di-GMP and GlgX.\nTo determine if the interaction between Vnz29170 (herein called GlgX) and c-di-GMP is direct, we purified an N-terminally His6-tagged GlgX protein and performed nano differential scanning fluorimetry (nanoDSF) thermal shift assays. […] In addition, we used differential radial capillary action of ligand assays (DRaCALA), which allows visualization of protein-bound radiolabeled ligand as a central spot after the application of the protein-ligand mix onto nitrocellulose. Using DRaCALA we confirmed that GlgX from S. venezuelae binds ^32P-labeled c-di-GMP.\nFor DRaCALA assays, purified His6-GlgX (15 μg) was mixed with 0.5 μl undiluted [^32P]-c-di-GMP (42 nM) (Hartmann Analytic GmbH, Braunschweig) in binding buffer (25 mM Tris pH 8; 150 mM NaCl; 2.5% (v/v) glycerol; 5 mM MgCl2) and the reaction was incubated at rt for 5 min. For competition assays, 100 μM nonlabeled nucleotides were added to the samples and incubated at rt for 5 min prior to the addition of [^32P]-c-di-GMP. Reactions (10 μl) were spotted on the same nitrocellulose membrane (Roth), air dried for 10 min and analyzed via phosphorimaging."}, "His6-GlgX (Vnz29170)": {"tested_on": "His6-GlgX (Vnz29170)", "assay": "nanoDSF label-free thermal shift assay, wild-type GlgX", "format": "binding, Streptomyces venezuelae", "settings": "10 µM GlgX, 1 mM c-di-AMP", "description": "as §3\nTo determine if the interaction between Vnz29170 (herein called GlgX) and c-di-GMP is direct, we purified an N-terminally His6-tagged GlgX protein and performed nano differential scanning fluorimetry (nanoDSF) thermal shift assays. […]\nFor label-free thermal shift assay experiments, 10 μM purified protein in 25 mM Tris pH 8, 150 mM NaCl, 2.5% (v/v) glycerol, and 5 mM MgCl2 was incubated without or with (1 mM) of nonlabeled c-di-GMP or c-di-AMP, respectively, at rt for 10 min. Reactions were subsequently analyzed in a Tycho NT.6 (NanoTemper Technologies) device with a 30 K/min thermal ramp and the internal fluorescence at 330 and 350 nm was recorded. […]"}, "[1]": {"biological_target": "S. venezuelae glycogen debranching enzyme GlgX (Vnz29170) (S. venezuelae)", "assay": "crystal structure; GlgX with 3 mM c-di-GMP, 3.34 Å; 40% ethylene glycol, 0.1 M sodium acetate pH 4.6; two GlgX dimers in the asymmetric unit"}}, "note": "Entries after “also recorded” stand apart in the source; their conditions may differ.", "data": [{"molecule": "2′-O-(6-[Fluoresceinyl]aminohexylcarbamoyl)-cyclic diadenosine monophosphate [F-c-di-AMP]", "values": [{"measurement": "binding to WT GlgX in FP", "setting": "GlgX", "result": "did not bind; also recorded: essentially no binding"}]}, {"molecule": "2′-O-(6-[Fluoresceinyl]aminohexylcarbamoyl)-cyclic diguanosine monophosphate [F-c-di-GMP]", "values": [{"measurement": "Kd", "setting": "GlgX; WT GlgX titrated, pH 7.5, read-out: Kd", "result": "8.2 ± 1", "unit": "µM"}, {"measurement": "binding to mutant in FP", "setting": "GlgXR438A-R579A", "result": "nonsaturable binding"}, {"measurement": "binding to mutant in FP", "setting": "GlgXE47A-R49A", "result": "nonsaturable binding"}]}, {"molecule": "Nc1nc2c(ncn2[C@@H]2O[C@H](COP(=O)(O)OP(=O)(O)OP(=O)(O)O)[C@@H](O)[C@H]2O)c(=O)[nH]1", "note": "[GTP]", "values": [{"measurement": "competition with 32P-c-di-GMP for binding to GlgX", "setting": "His6-GlgX", "result": "not c-di-AMP or GTP competed"}]}, {"molecule": "Nc1ncnc2c1ncn2[C@@H]1O[C@@H]2COP(=O)(O)O[C@H]3[C@@H](O)[C@H](n4cnc5c(N)ncnc54)O[C@@H]3COP(=O)(O)O[C@H]2[C@H]1O", "note": "[c-di-AMP]", "values": [{"measurement": "competition with 32P-c-di-GMP for binding to GlgX", "setting": "His6-GlgX", "result": "not c-di-AMP or GTP competed"}, {"measurement": "effect of ligand on melting point of His6-GlgX", "setting": "His6-GlgX (Vnz29170)", "result": "no effect"}]}, {"molecule": "S. venezuelae glycogen debranching enzyme GlgX (Vnz29170)", "values": [{"measurement": "stoichiometry N", "setting": "[1]", "result": 2}]}]}
